Structures are written as SMILES. Several values for one entry are separate records, joined by “and”; a condition that tells them apart may be missing. Equal entries are not always repeated. Toxic doses and inconclusive results are not listed.

The subject of this assay is AKR/Lw mice, AKR lymphoma ip, median survival T/C. Briefly: NCI In Vivo Anticancer Drug Screen. Data for tumor model Lymphoma AKR (Transplanted) (intraperitoneal) in AKR/Lw mice. The following applies: endpoint: median survival time, higher = longer survival. How it is done: The antitumor activity of compounds was measured in mice bearing transplantable tumors. Survival or tumor size were measured and the results are expressed as the measurement made in the treated group (T) divided by the measurement made in the vehicle treated control group (C). The tumor model used in this assay is Lymphoma AKR (Transplanted) (intraperitoneal) in AKR/Lw mice

Where [1] appears, read: dose: 100.0 mg/kg/injection, schedule: Q01DX001 (ip), vehicle: Klucel (hydroxypropylcellulose) (HPC).
Where [2] appears, read: dose: 200.0 mg/kg/injection, schedule: Q01DX001 (ip), vehicle: Klucel (hydroxypropylcellulose) (HPC).
[3] abbreviates: dose: 400.0 mg/kg/injection, schedule: Q01DX001 (ip), vehicle: Klucel (hydroxypropylcellulose) (HPC).

For the compound `O=c1[nH]cc(F)c(=O)[nH]1`, the T/C was 152 % of control (dose: 1.25 mg/kg/injection, schedule: Q01DX005 (ip), vehicle: saline); 118 % of control (dose: 1.25 mg/kg/injection, schedule: Q03HX032 (ip), vehicle: saline); 114 % of control (dose: 2.5 mg/kg/injection, schedule: Q01DX005 (ip), vehicle: saline); 113 % of control (dose: 2.5 mg/kg/injection, schedule: Q01DX015 (ip), vehicle: saline); 123 % of control (dose: 3.1 mg/kg/injection, schedule: Q04DX003 (ip), vehicle: saline); 102 % of control (dose: 5.0 mg/kg/injection, schedule: Q01DX001 (ip), vehicle: saline). The T/C reads like this: (dose: 5.0 mg/kg/injection, schedule: Q01DX009 (ip), vehicle: saline) 100 % of control and 106 % of control; (dose: 5.0 mg/kg/injection, schedule: Q01DX015 (ip), vehicle: saline) 108 % of control; (dose: 5.0 mg/kg/injection, schedule: Q04DX003 (ip), vehicle: saline) 97 % of control; (dose: 5.0 mg/kg/injection, schedule: Q04DX004 (ip), vehicle: saline) 115 % of control; (dose: 5.0 mg/kg/injection, schedule: Q##DX003 (ip), vehicle: saline) 97 % of control; (dose: 6.2 mg/kg/injection, schedule: Q01DX001 (ip), vehicle: saline) 104 % of control. Also, the T/C runs as follows: (dose: 6.2 mg/kg/injection, schedule: Q04DX003 (ip), vehicle: saline) 113 % of control; (dose: 7.5 mg/kg/injection, schedule: Q01DX009 (ip), vehicle: saline) 105 % of control; (dose: 9.0 mg/kg/injection, schedule: Q04DX003 (ip), vehicle: saline) 112 % of control; (dose: 10.0 mg/kg/injection, schedule: Q01DX001 (ip), vehicle: saline) 94 % of control; (dose: 10.0 mg/kg/injection, schedule: Q01DX009 (ip), vehicle: saline with Tween-80) 118 % of control; (dose: 10.0 mg/kg/injection, schedule: Q01DX015 (ip), vehicle: saline) 180 % of control. Moreover, the T/C was 168 % of control (dose: 10.0 mg/kg/injection, schedule: Q04DX003 (ip), vehicle: saline); 168 % of control (dose: 10.0 mg/kg/injection, schedule: Q##DX003 (ip), vehicle: saline); 100 % of control and 121 % of control (dose: 12.5 mg/kg/injection, schedule: Q01DX001 (ip), vehicle: saline); 113 % of control (dose: 15.0 mg/kg/injection, schedule: Q01DX009 (ip), vehicle: saline); 150 % of control and 177 % of control (dose: 15.0 mg/kg/injection, schedule: Q01DX015 (ip), vehicle: saline); 113 % of control (dose: 15.0 mg/kg/injection, schedule: Q04DX004 (ip), vehicle: saline). The T/C (dose: 18.0 mg/kg/injection, schedule: Q04DX003 (ip), vehicle: water) is 98 % of control; the T/C (dose: 20.0 mg/kg/injection, schedule: Q01DX001 (ip), vehicle: saline) is 105 % of control; the T/C (dose: 20.0 mg/kg/injection, schedule: Q01DX005 (ip), vehicle: saline) is 161 % of control; the T/C (dose: 20.0 mg/kg/injection, schedule: Q01DX009 (ip), vehicle: saline with Tween-80) is 122 % of control; the T/C (dose: 20.0 mg/kg/injection, schedule: Q01DX015 (ip), vehicle: saline) was 167 % of control; the T/C (dose: 20.0 mg/kg/injection, schedule: Q03HX024 (ip), vehicle: saline) is 95 % of control. The T/C was 107 % of control (dose: 20.0 mg/kg/injection, schedule: Q04DX003 (ip), vehicle: saline); 107 % of control (dose: 20.0 mg/kg/injection, schedule: Q##DX003 (ip), vehicle: saline); 119 % of control (dose: 24.0 mg/kg/injection, schedule: Q04DX003 (ip), vehicle: water); 109 % of control and 116 % of control (dose: 25.0 mg/kg/injection, schedule: Q01DX001 (ip), vehicle: saline); 161 % of control (dose: 30.0 mg/kg/injection, schedule: Q01DX005 (ip), vehicle: saline); 177 % of control (dose: 30.0 mg/kg/injection, schedule: Q01DX009 (ip), vehicle: saline). For the same compound, the T/C runs as follows: (dose: 30.0 mg/kg/injection, schedule: Q04DX004 (ip), vehicle: saline) 107 % of control; (dose: 36.0 mg/kg/injection, schedule: Q04DX003 (ip), vehicle: water) 163 % of control; (dose: 40.0 mg/kg/injection, schedule: Q01DX009 (ip), vehicle: saline with Tween-80) 86 % of control; (dose: 40.0 mg/kg/injection, schedule: Q04DX004 (ip), vehicle: saline) 168 % of control; (dose: 40.0 mg/kg/injection, schedule: Q##DX003 (ip), vehicle: saline) 97 % of control; (dose: 45.0 mg/kg/injection, schedule: Q04DX004 (ip), vehicle: saline) 123 % of control and 291 % of control. Moreover, the T/C by setting is: (dose: 60.0 mg/kg/injection, schedule: Q04DX003 (ip), vehicle: saline) 89 % of control; (dose: 60.0 mg/kg/injection, schedule: Q04DX004 (ip), vehicle: saline) 157 % of control and 352 % of control; (dose: 60.0 mg/kg/injection, schedule: Q04DX008 (ip), vehicle: saline) 108 % of control; (dose: 75.0 mg/kg/injection, schedule: Q01DX001 (ip), vehicle: saline) 150 % of control and 166 % of control; (dose: 75.0 mg/kg/injection, schedule: Q04DX003 (ip), vehicle: saline) 260 % of control; (dose: 75.0 mg/kg/injection, schedule: Q04DX004 (ip), vehicle: saline) 88 % of control. In addition, the T/C by setting is: (dose: 80.0 mg/kg/injection, schedule: Q04DX003 (ip), vehicle: saline) 99 % of control; (dose: 150.0 mg/kg/injection, schedule: Q04DX003 (ip), vehicle: saline) 105 % of control; (dose: 300.0 mg/kg/injection, schedule: Q04DX003 (ip), vehicle: saline) 88 % of control.
`COc1cc2c(cc1OC)C(C#N)C2` (stereo unspecified): the T/C runs as follows: under setting [1], 100 % of control; under setting [2], 100 % of control; under setting [3], 94 % of control.
Regarding `COc1ccc(C2c3cc4c(c(OC)c3CC3OCC(=O)C32)OCO4)cc1OC` (stereo unspecified), the T/C (dose: 25.0 mg/kg/injection, schedule: Q01DX009 (ip), vehicle: Klucel (hydroxypropylcellulose) (HPC)) is 110 % of control and the T/C (dose: 50.0 mg/kg/injection, schedule: Q01DX009 (ip), vehicle: Klucel (hydroxypropylcellulose) (HPC)) is 103 % of control.
On to `CC(=O)NC1CC2c3ccccc3C1([N+](=O)[O-])c1ccccc12` (stereo unspecified), for which the T/C reads like this: under setting [1], 104 % of control; under setting [2], 97 % of control; under setting [3], 102 % of control.
Consider `COC(=O)C1CC(=O)C2(C)CCc3c(ccc4cc(OC)ccc34)C12` (stereo unspecified), for which the T/C reads like this: (dose: 100.0 mg/kg/injection, schedule: Q01DX001 (sc), vehicle: steriod suspending solution) 109 % of control; (dose: 200.0 mg/kg/injection, schedule: Q01DX001 (sc), vehicle: steriod suspending solution) 104 % of control.

Source of the values: PubChem BioAssay AID190 (DTP/NCI, 2004).
